This note sets out measurements from PMC7371863, “Intracellular interplay between cholecystokinin and leptin signalling for satiety control in rats” (Scientific Reports, 2020).

For experiment [1], the system named is nuclear pSTAT3 in the rat VMN. The experiment is described as follows: Nuclear pSTAT3-ir in VMN after i.c.v. injection. The class given is in vivo. The procedure: A guide cannula (cut length 5 mm, no. C315G; Plastics One Inc.) was stereotaxically implanted to the right lateral ventricle of each rat, with the coordinates of 0.8 mm posterior to the bregma, 1.4 mm lateral to the midline, and 3.3 mm ventral from the skull surface. The canula was secured on the skull surface with two stainless steel screws and dental acrylic resin. The rats were then allowed to recover in their home cage for at least 1 week. Leptin (4 µg) and CCK (2 µg) were dissolved in 4 µl ACSF and administered through an internal cannula (cut length 5.5 mm, no. C315I; Plastics One Inc. C315I). To minimize the effect of endogenous signals, the rats were deprived of food for 10 h (08:00–18:00) before i.c.v. administration. Drugs were infused at a flow rate of 1 µl/min over 4 min using a motorized syringe pump (Carnegie Medicine model CMA/102), followed by another 4 min of rest for diffusion. One hour after i.c.v. administration, the rat brain was removed for immunohistochemical analysis.
For immunohistochemical analysis of rat hypothalamic slices, animals were deeply anesthetized with an i.p. injection of sodium pentobarbital (50 mg/kg) and transcardially perfused with PBS(−) for 5 min followed by ice-cold 4% (w/v) paraformaldehyde in PBS(−) for 15 min. The brain was removed and further fixed in the same fixative (4 °C, overnight). Then, the olfactory bulbs and/or cerebellum were removed from the brain in ice-cold PBS(−). Pre-trimmed brain tissues were immersed in 30% (w/v) sucrose and stored overnight at 4 °C. The fixed and cryoprotected brain tissues were embedded with OCT compound. Frozen sections of 30 µm thickness were cut using a cryostat microtome and washed three times with PBS(−) in 24-well plates, after which they were mounted on glass slides. […]
(§1) Images were acquired using a confocal laser-scanning microscope (Olympus FV1000 or Nikon A1R MP plus) with a laser diode (405 nm), argon laser (488 nm), and helium neon laser ([…]). The nuclear immunofluorescent intensity (8-bit depth) was analyzed using Photoshop CS 6 software.

The test system of experiment [2] is VMN cells. The experiment is described as follows: Ca2+ imaging in rat VMN slices. The class given is cell-based. The conditions noted are these: for cells responding exclusively to leptin or CCK-8s, VMN (discussion): approximately, population analysis; for Rmax, Ca2+ concentration response / pEC50: four-parameter Hill function; for pEC50: read-out: EC50, Ca2+ concentration response.

The subject of experiment [3] is VMN neurons. The experiment is described as follows: Whole cell patch clamp, action potential firing in VMN neurons. The conditions noted are these: for action potential firing frequency: n.s. The format is cell-based, rat. How it is done:
The VMH slices (300-μm thickness) were prepared following deep pentobarbital anaesthesia administration to postnatal day (PD) 12–16 rats using a vibrating blade microtome in ice-cold high-Mg^2+ artificial cerebrospinal fluid (ACSF) containing 138.6 mM NaCl, 3.35 mM KCl, 21 mM NaHCO3, 0.6 mM NaH2PO4, 9.9 mM D-glucose, 0.5 mM CaCl2, and 4 mM MgCl2 bubbled with 95% O2/5% CO2. The slices were incubated at room temperature for 1 h in regular ACSF containing 2.5 mM CaCl2, and 1.0 mM MgCl2 bubbled with 95% O2/5% CO2. Subsequently, the slices were transferred to an upright microscope stage (Olympus BX50WI). The recording chamber was perfused with oxygenated normal ACSF at 3 ml/min at 34 °C. VMN neurons were visualized through an infrared CCD camera (Hamamatsu Photonics C2741-79). Neurons were recorded in the whole-cell current-clamp mode using a patch-clamp amplifier (Axon Instruments Axopatch 200B). The recordings were performed using patch pipettes with an access resistance of 4–6 MΩ and internal solution containing 135 mM potassium gluconate, 5 mM KCl, 10 mM HEPES, 0.1 mM CaCl2, 1.0 mM EGTA, 10 mM phosphocreatine, 2 mM Mg-ATP, and 0.2 mM Na-GTP (pH adjusted to 7.3 with KOH). The output of the amplifier was digitised using an A/D converter board (Axon Instruments Digidata 1200) with a sampling rate of 10 kHz and recorded on a hard disk by data acquisition software (Axon Instruments pCLAMP 8). Membrane potentials were low-pass-filtered at 2 kHz. Resting membrane potentials less than − 60 mV were set to approximately − 60 mV by current injections. Stimulants were applied by the gravity drop perfusion system. Further details of electrophysiological recordings were described previously.
A general note: In patch-clamp work, channel activity is measured electrically.

Experiment [4] relates to pSTAT3 in C6-ObRb cells. The experiment is described as follows: Immunofluorescent staining of pSTAT3 in C6-ObRb cells. The format is cell-based, rat C6 cells, mouse ObRb. The procedure:
Rat C6 glioma cells were cultured in Dulbecco’s Modified Eagle Medium/F12 (DMEM/F12) supplemented with 10% FBS, sodium bicarbonate (1.2 g/L), and 1% penicillin/streptomycin antibiotics at 37 °C in 5% CO2. The full-length mouse leptin receptor (ObRb) in pcDNA3.1 vector was kindly provided by Dr. Christian Bjørbaek (BIDMC, Harvard Medical School, Boston, MA, USA) and transfected using Lipofectamine 2000. Subsequently, the cells were cultured in medium containing 500 μg/mL G418 for cell selection.
[…] Cells were treatment with AG490 (1 μM) or LY294002 (50 μM) 15 min prior to the leptin stimulation until the time of fixation. These cells were fixed in 4% phosphate-buffered paraformaldehyde for 15 min and washed three times with PBS(−). The fixed samples were then incubated for 2 h at room temperature in 10% donkey serum dissolved in 0.1% Triton-X PBS(−). Next, samples were incubated with 1:100 affinity-purified rabbit phospho-STAT3 (pTyr^705) dissolved in 5% donkey serum PBS(−) for 24 h at 4 °C. After three 20-min PBS(−) rinses, samples were incubated in 1:400 Cy3-conjugated donkey anti-rabbit IgG for 2 h at room temperature. Finally, samples were rinsed with PBS(−) (four 15-min rinses on an orbital shaker) and mounted using Vectashield containing 4′,6-diamidino-2-phenylindole (DAPI).
as §1

The mark [5] stands for this setting: leptin with co-stimulation of 1 nM CCK-8s.

pEC50: −log10 of the molar value. Like-named read-outs stand apart in the source and are kept apart here.

As for CCK-8s [reference compound], the “nuclear pSTAT3 levels in VMN versus single leptin injection” value in experiment [1] (CCK-8s 2 µg co-injected with leptin 4 µg i.c.v.) is given as “reduced nuclear pSTAT3 levels in the rat VMN compared with single leptin injections”. In addition, the “Ca2+ transients in slice preparation” value in experiment [2] (CCK-8s 1 nM alone, n = 216 in 18 slices) was “failed to evoke Ca^2+ transients”. Also, in experiment [2] (CCK-8s 1 nM with leptin 1–1,000 nM, p < 0.01 two-way ANOVA), the “effect of co-stimulation on leptin-induced Ca2+ responses” value is recorded as “amplified leptin-induced Ca^2+ responses”. The “cells that exclusively responded to CCK-8s, VMN” value in experiment [2] (CCK-8s 10 nM versus leptin 500 nM, 11 slices, mean with standard error) was determined as 5.2 ± 1.1%. Moreover, in experiment [2] (CCK-8s 10 nM, leptin 500 nM, 11 slices, mean with standard error), the “leptin responders also responding to CCK-8s, VMN” value was 81.3 ± 9.1%. For the same substance, in experiment [2] (leptin 500 nM and CCK-8s 10 nM), the “cells responding exclusively to leptin or CCK-8s, VMN (discussion)” value is reported as 5–12% and the “cells showing leptin-induced Ca2+ increase that also responded to CCK-8s (discussion)” value was “more than 80%”. Moreover, the “action potential firing frequency” value in experiment [3] (CCK-8s 1 nM, n = 9, spontaneous 1.45 ± 0.07 Hz, − 60 mV, 34 °C) is on record as 1.28 ± 0.15 Hz. The “cytosolic pSTAT3-ir” value in experiment [4] (CCK-8s 50 nM) is given as “induced cytosolic pSTAT3-ir”. Further, in experiment [4] (CCK-8s 50 nM with leptin 100 nM, 30 images/three dishes, p < 0.01), the “nuclear pSTAT3-ir on co-stimulation versus leptin alone” value was “significantly smaller than that by leptin stimulation alone”. Moreover, the “nuclear intensity of pSTAT3-ir versus unstimulated controls” value in experiment [4] (CCK-8s 50 nM, 30 images/three dishes, p < 0.01) is on record as “significantly smaller in the CCK-8s-treated group than in unstimulated controls”.

With “leptin: peptide hormone secreted from white adipocyte tissue, product of the obese gene; PeproTech Cat#450-31”, in experiment [1] (leptin 4 µg i.c.v., 1 h, 10 h food-deprived, p < 0.01), the “number of nuclear pSTAT3-ir in VMN relative to vehicle-injected control” value is reported as “three times”. Further, in experiment [1] (leptin 4 µg with CCK-8s 2 µg i.c.v., 1 h, n.s.), the “number of nuclear pSTAT3-ir in VMN, co-administration, versus vehicle” value was “failed to increase the number of nuclear pSTAT3-ir”. In addition, the “cells responding exclusively to leptin or CCK-8s, VMN (discussion)” value in experiment [2] (leptin 500 nM and CCK-8s 10 nM) is listed as 5–12%. The “cells that exclusively responded to leptin, VMN” value in experiment [2] (leptin 500 nM versus CCK-8s 10 nM, 11 slices, mean with standard error) was determined as 12.2 ± 1.5%. Further, the “cells with monophasic Ca2+ increase, VMN” value in experiment [2] (leptin 500 nM, 11 slices, 0.5 µM tetrodotoxin, 34 °C, mean with standard error) was 65.4 ± 7.5%. Besides, the “Rmax, Ca2+ concentration response” value in experiment [2] (leptin alone) worked out at 0.2; in experiment [2] (leptin with 1 µM LGM), 0.14; in experiment [2] (setting [5]), 0.26. The pEC50 was 6.82 in experiment [2] (leptin alone), 6.79 in experiment [2] (leptin with 1 µM LGM) and 7.37 in experiment [2] (setting [5]). Besides, in experiment [3] (leptin 30 nM with CCK-8s 1 nM), the “neurons with apparent (> twofold) increase in firing frequency, co-stimulation” value is reported as “Five neurons in nine recordings”. For the same substance, in experiment [3] (leptin 30 nM with CCK-8s 1 nM, n = 9, p < 0.01, spontaneous 1.45 ± 0.07 Hz, − 60 mV, 34 °C), the “action potential firing frequency, co-stimulation” value was determined as 3.49 ± 0.68 Hz. In experiment [3] (leptin 30 nM with CCK-8s 1 nM, single neuron maximum), the “highest action potential firing frequency, co-stimulation” value worked out at 5.5 Hz. The “action potential firing frequency” value in experiment [3] (leptin 30 nM, n = 9, spontaneous 1.45 ± 0.07 Hz, − 60 mV, 34 °C) is on record as 1.55 ± 0.13 Hz. The “nuclear pSTAT3-ir” value in experiment [4] (leptin 100 nM, 30 images/three dishes, p < 0.01 one-way ANOVA) was “significantly increased pSTAT3-ir in the nuclei”.
